Experiments:
[1] = Viscosity of contrast medium solutions; assay type: physicochemical; conditions: for Viscosity: 37° C.
[2] = Osmolality of contrast medium solutions; assay type: physicochemical
[3] = test system: mouse; assay: LD50 mouse i.v.; assay type: in vivo
[4] = Water solubility; assay type: physicochemical; conditions: in words
[5] = Chemical stability; assay type: physicochemical; conditions: in words
[6] = Renal excretion; assay type: in vivo; conditions: in words

Row | SMILES | Viscosity ([1]; 350 mg I/ml (*)) | Osmolality ([2]; 350 mg I/ml (*) (37° C.)) | LD50 [3] | Viscosity ([1]; 370 mg I/ml) | Osmolality ([2]; 370 mg I/ml (37° C.)) | other results
1 | CC(=O)N(CC(O)CO)c1c(I)c(C(=O)NCC(O)CO)c(I)c(C(=O)NCC(O)CO)c1I (stereo not shown) [Iohexol] | 10.5 cP | 820 mosm/kg H2 O | 15 g I/kg | – | – | –
2 | C[C@H](O)C(=O)Nc1c(I)c(C(=O)NC(CO)CO)c(I)c(C(=O)NC(CO)CO)c1I [Iopamidol] | – | – | 15 g I/kg | 9.4 cP | 830 mosm/kg H2 O | –
3 | COCC(=O)Nc1c(I)c(C(=O)NCC(O)CO)c(I)c(C(=O)N(C)CC(O)CO)c1I (stereo not shown) [Iopromide] | – | – | 15 g I/kg | 9.5 cP | 770 mosm/kg H2 O | –
4 | CN(C(=O)CO)c1c(I)c(C(=O)NCC(O)CO)c(I)c(C(=O)NCC(O)CO)c1I (stereo not shown) [Iomeprol] | – | – | 14 g I/kg | 8.6 cP | 680 mosm/kg H2 O | Greatest improvement of osmolality within the previously known five contrast media ([2]; Iopamidol/Iomeprol (Iomeprol versus Iopamidol)): 18.1%
5 | CN(CC(O)CO)C(=O)c1c(I)c(NC(=O)CO)c(I)c(C(=O)NCCO)c1I (stereo not shown) [Example 1, 5-Hydroxyacetamido-2,4,6-triido-isophthalic acid-(2,3-dihydroxy-N-methyl-propyl)-(2-hydroxy-ethyl)-diamide] | – | – | 18 g I/kg | 6.6 cP | 590 mosm/kg H2 O | Improvement of viscosity value ([1]; in comparison with iopromide): 30.5%; Improvement of osmolality value ([2]; in comparison with iopromide): 23.4%; Water solubility [4]: very water-soluble; Chemical stability [5]: good chemical stability; Renal excretion [6]: very quick, selective renal excretion
6 | CC(=O)N(CC(O)CO)c1c(I)c(C(=O)NCCO)c(I)c(C(=O)NCC(O)CO)c1I (stereo not shown) [Ioxilan] | 8.1 cP | 700 mosm/kg H2 O | 15 g I/kg | – | – | Greatest improvement of viscosity within the previously known five contrast media ([1]; Iohexol/Ioxilan (Ioxilan versus Iohexol)): 22.9%

— patent US5232685A, “Nonionic x-ray contrast medium with high iodine content” (Schering Aktiengesellschaft, priority 1989, dated 1993)
